Measured values: the supplement of paper PMC10307832

Key:
Experiment in all cases: relative viability (nuclei count vs DMSO), 5 days (fraction); higher = more cells survive
[1] = compound: Cc1ccc(Nc2nccc(N(C)c3ccc4c(C)n(C)nc4c3)n2)cc1S(N)(=O)=O [Pazopanib] + CS(=O)(=O)CCNCc1ccc(-c2ccc3ncnc(Nc4ccc(OCc5cccc(F)c5)c(Cl)c4)c3c2)o1 [Lapatinib] (partner 2 µM)
Method in brief: (§1)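 Dosing by pin tool came one day after lung cancer cell lines were seeded in 1536-well plates, using either one drug or a fixed anchor-drug dose plus five library-drug doses (not always all listed) in √10 steps. After 5 days, nuclei were counted on 4× images. Relative viability is treated-well nuclei count divided by vehicle-well nuclei count, and values are medians of duplicate plates.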

[2] = compound: Cc1ccc(C(=O)Nc2ccc(CN3CCN(C)CC3)c(C(F)(F)F)c2)cc1C#Cc1cnc2cccnn12 [Ponatinib] + CCNC(=O)c1noc(-c2cc(C(C)C)c(O)cc2O)c1-c1ccc(CN2CCOCC2)cc1 [Luminespib] (partner 0.01 µM)
Method in brief: as §1

[3] = compound: Cc1ccc(C(=O)Nc2ccc(CN3CCN(C)CC3)c(C(F)(F)F)c2)cc1C#Cc1cnc2cccnn12 [Ponatinib] + C[C@@H](Oc1cc(-c2cnn(C3CCNCC3)c2)cnc1N)c1c(Cl)ccc(F)c1Cl [Crizotinib] (partner 1 µM)
Method in brief: as §1

[4] = compound: Cc1ccc(C(=O)Nc2ccc(CN3CCN(C)CC3)c(C(F)(F)F)c2)cc1C#Cc1cnc2cccnn12 [Ponatinib] + O=C(CCCCCCC(=O)Nc1ccccc1)NO [Vorinostat] (partner 1 µM)
Method in brief: as §1

UMC-11
relative viability ([1]; first compound 0.01 µM): 0.807
relative viability ([1]; first compound 0.03162 µM): 1.03
relative viability ([1]; first compound 0.1 µM): 0.939
relative viability ([1]; first compound 0.3162 µM): 1.01
relative viability ([1]; first compound 1 µM): 1.12
relative viability ([2]; first compound 0.002 µM): 1.07
relative viability ([2]; first compound 0.006325 µM): 1.16
relative viability ([2]; first compound 0.06325 µM): 1.04
relative viability ([2]; first compound 0.2 µM): 0.979
relative viability ([3]; first compound 0.002 µM): 0.678
relative viability ([3]; first compound 0.006325 µM): 0.603
relative viability ([3]; first compound 0.06325 µM): 0.786
relative viability ([3]; first compound 0.2 µM): 0.612
relative viability ([4]; first compound 0.002 µM): 0.411
relative viability ([4]; first compound 0.006325 µM): 0.403
relative viability ([4]; first compound 0.06325 µM): 0.51
relative viability ([4]; first compound 0.2 µM): 0.486
